Experimental data as given in ChEMBL document CHEMBL4033623, “Synthesis of xanthone derivatives and studies on the inhibition against cancer cells growth and synergistic combinations of them” (Eur J Med Chem, 2017).

What was measured:
Assay type in all cases: functional, cell-based
COLO 320 [1] = assay: Antiproliferative activity against human COLO320 cells after 48 hrs by CCK8 assay; details: COLO 320, 48 h
MCF7 [2] = assay: Antiproliferative activity against human MCF7 cells after 48 hrs by CCK8 assay; details: MCF7, 48 h
HepG2 [3] = assay: Antiproliferative activity against human HepG2 cells after 48 hrs by CCK8 assay; details: HepG2, 48 h
MDA-MB-231 [4] = assay: Antiproliferative activity against human MDA-MB-231 cells after 48 hrs by CCK8 assay; details: MDA-MB-231, 48 h
K562 [5] = assay: Antiproliferative activity against human K562 cells after 48 hrs by CCK8 assay; details: K562, 48 h
COLO 320 [6] = assay: Synergistic antiproliferative activity against human COLO320 cells at compound to DMXAA mol ratio of 1:1 after 48 hrs by CCK8 assay; details: COLO 320, 48 h
MDA-MB-231 [7] = assay: Synergistic antiproliferative activity against human MDA-MB-231 cells at compound to DMXAA mol ratio of 1:1 after 48 hrs by CCK8 assay; details: MDA-MB-231, 48 h
MCF7 [8] = assay: Synergistic antiproliferative activity against human MCF7 cells at compound to DMXAA mol ratio of 1:1 after 48 hrs by CCK8 assay; details: MCF7, 48 h
HepG2 [9] = assay: Synergistic antiproliferative activity against human HepG2 cells at compound to DMXAA mol ratio of 1:1 after 48 hrs by CCK8 assay; details: HepG2, 48 h
K562 [10] = assay: Synergistic antiproliferative activity against human K562 cells at compound to DMXAA mol ratio of 1:1 after 48 hrs by CCK8 assay; details: K562, 48 h

| Compound | IC50 (COLO 320 [1]) [µM] | IC50 (MCF7 [2]) [µM] | IC50 (HepG2 [3]) [µM] | IC50 (MDA-MB-231 [4]) [µM] | IC50 (K562 [5]) [µM] | IC50 (COLO 320 [6]) [µM] | IC50 (MDA-MB-231 [7]) [µM] | IC50 (MCF7 [8]) [µM] | IC50 (HepG2 [9]) [µM] | IC50 (K562 [10]) [µM] |
| --- | --- | --- | --- | --- | --- | --- | --- | --- | --- | --- |
| O=c1c2cc(O)c(O)cc2oc2cc(O)cc(O)c12 | 23 | 43.2 | 23.7 | 23.6 | 13.1 |  |  |  |  |  |
| O=c1c2cc(O)ccc2oc2cc(O)cc(O)c12 | > 200 | 31.2 | > 200 | 25.1 | 106 |  |  |  |  |  |
| O=c1c2cc(O)ccc2oc2cc(O)c(O)cc12 | 93.2 | 28.1 | 63.3 | 23.5 | 73.5 |  |  |  |  |  |
| O=c1c2cc(Cl)ccc2oc2cc(O)cc(O)c12 | 15.2 | 1.2 | 3.2 | 5.2 | 5.2 | 9.15 | 3.1 | 1.15 | 4.22 | 2.27 |
| O=c1c2cccc(O)c2oc2cc(O)cc(O)c12 | 23.7 | 23.4 | 33.8 | 23.8 | 28.5 |  |  |  |  |  |
| COc1cc(OC)c2c(=O)c3cc(Br)ccc3oc2c1 | 77.1 | 43.1 | 87.1 | 87.1 | 52.1 |  |  |  |  |  |
| O=c1c2c(O)cccc2oc2cc(O)cc(O)c12 | 36.4 | 31.6 | 55.3 | 33 | 60.1 |  |  |  |  |  |
| O=c1c2cc(O)ccc2oc2c(O)c(O)ccc12 | 83.1 | > 200 | > 200 | 53.1 | 63.1 |  |  |  |  |  |
| O=c1c2ccccc2oc2cc(O)cc(O)c12 | 15.1 | 11.2 | 11.7 | 11.6 | 45.1 |  |  |  |  |  |
| O=c1c2ccc(O)cc2oc2cc(O)ccc12 | 37.7 | 91.3 | 61.7 | 31.7 | 31.2 |  |  |  |  |  |
| Cc1ccc2c(=O)c3c(O)cc(O)cc3oc2c1 | 27.1 | 4.2 | 12.7 | 8.6 | 5.1 | 22.8 | 2.63 | 2.06 | 8.75 | 4.65 |
| O=c1c2ccc(O)cc2oc2c(O)cccc12 | 55.1 | 41.9 | 23.7 | 95.6 | 45.1 |  |  |  |  |  |
| O=c1c2cc(Cl)ccc2oc2cccc(O)c12 | > 200 | 53.1 | > 200 | 67.1 | 62 |  |  |  |  |  |
| O=c1c2cc(Br)ccc2oc2c(O)c(O)ccc12 | 63.1 | 104 | 63.8 | 83.2 | 53.5 |  |  |  |  |  |
| O=c1c2ccccc2oc2c(O)c(O)ccc12 [3,4-DIHYDROXYXANTHONE] | 73 | 93.2 | 89.7 | 124 | 103 |  |  |  |  |  |
| COc1cc(OC)c2c(=O)c3c(O)cccc3oc2c1 | 25.9 | 21.1 | 83.8 | 25.9 | 25.1 |  |  |  |  |  |

| Compound | IC50 (COLO 320 [1]) [µM] | IC50 (MCF7 [2]) [µM] | IC50 (HepG2 [3]) [µM] | IC50 (MDA-MB-231 [4]) [µM] | IC50 (K562 [5]) [µM] | IC50 (COLO 320 [6]) [µM] | IC50 (MDA-MB-231 [7]) [µM] | IC50 (MCF7 [8]) [µM] | IC50 (HepG2 [9]) [µM] | IC50 (K562 [10]) [µM] |
| --- | --- | --- | --- | --- | --- | --- | --- | --- | --- | --- |
| O=c1c2ccc(O)cc2oc2cc(O)cc(O)c12 | 105 | 112 | 124 | 55.6 | 55.6 |  |  |  |  |  |
| O=c1c2cc(O)ccc2oc2ccc(O)cc12 [EUXANTHONE] | 91.2 | 128 | > 200 | 83.5 | 73.5 |  |  |  |  |  |
| COc1cc(O)c2c(=O)c3c(OC)cccc3oc2c1 | 35.7 | 34.3 | 32.7 | 34.7 | 34.2 |  |  |  |  |  |
| COc1cc(OC)c2c(=O)c3ccc(O)cc3oc2c1 | 12.1 | 11.2 | 8.7 | 9.6 | 29.1 | 10.2 | 9.13 | 14.1 | 8.43 | 26.2 |
| O=c1c2cc(Cl)ccc2oc2c(O)cccc12 | 87.5 | 13 | 37.3 | 57.1 | 52.1 |  |  |  |  |  |
| O=c1c2ccccc2oc2ccc(Cl)cc12 | 96.7 | > 200 | 62 | 69.4 | > 200 |  |  |  |  |  |
| COc1ccc2c(=O)c3cc(O)ccc3oc2c1 | 93.7 | 23.4 | > 200 | > 200 | > 200 |  |  |  |  |  |
| O=c1c2ccc(O)cc2oc2ccc(O)cc12 | 31.5 | 92.4 | 52.2 | 32.4 | 88.9 |  |  |  |  |  |
| O=c1c2cc(Br)ccc2oc2c(O)cccc12 | 102 | 22.9 | 82.6 | 12.5 | > 200 |  |  |  |  |  |
| O=c1c2cc(O)ccc2oc2c(O)cccc12 | 53.7 | 13.4 | 23.8 | 43.8 | 43.5 |  |  |  |  |  |
| O=c1c2ccc(O)cc2oc2ccc(Cl)cc12 | 55.1 | 41.2 | 43.7 | 45.6 | 45.1 |  |  |  |  |  |
| O=c1c2ccc(O)cc2oc2c(O)c(O)ccc12 | 77.3 | 43.7 | 87.3 | 87.3 | 82.3 |  |  |  |  |  |
| O=c1c2cc(O)c(O)cc2oc2cccc(O)c12 | 85.1 | 101 | 83.8 | 65.9 | 156 |  |  |  |  |  |
| COc1cc(OC)c2c(=O)c3cc(Cl)ccc3oc2c1 | 11.5 | 21.4 | 31.2 | 11.4 | 19.4 |  |  |  |  |  |
| Cc1ccc2c(=O)c3cccc(O)c3oc2c1 | 53.7 | 83.4 | 93.8 | 43.8 | 93.5 |  |  |  |  |  |
| O=c1c2ccccc2oc2cc(O)ccc12 | > 200 | 121 | 85.3 | 93 | > 200 |  |  |  |  |  |
